{"source": "patent EP1263420B1", "about": "(priority 2000, dated 2001)", "key": {"TGase II": {"tested_on": "TGase II", "test": "TGase II assay of rat lung tissue after inhaled 13-cis RA (experiment B)", "format": "in vivo", "conditions": "for TGase II assay / TGase II assay DPM/µg protein: rat lung", "protocol": "Male rats (n=23) (Sprague-Dawley from Charles River) were divided into six experimental groups and were given varying amounts of 13-cis RA through an inhalant apparatus once daily for different times each day for 14 days. The experimental groups were as follows (Table 1) :1.Vehicle control : rats (3) inhaled vehicle for 240 minutes; 2. Low dose 13-cis RA: rats (4) inhaled a solution containing 13-cis RA at a concentration of 62.2µg/liter (inhaled dose 115.0µg/kg body weight) in 5 minutes; 3. Low-Middle dose 13-cis RA : rats (4) inhaled a solution containing 13-cis RA at a concentration of 62.2µg/liter (inhaled dose 334.4µg/kg body weight) in 15 minutes; 4.Middle dose 13-cis RA: rats (4) inhaled a solution containing 13-cis RA at a concentration of 62.2µg/liter (inhaled dose 1012.3µg/kg body weight) in 45 minutes; 5. Middle-High dose 13-cis RA : rats (4) inhaled a solution containing 13-cis RA at a concentration of 62.2µg/liter (inhaled dose 2843.4µg/kg body weight) in 120 minutes; 6. High dose 13-cis RA : rats (4) inhaled a solution containing 13-cis RA at a concentration of 62.2µg/liter (inhaled dose 5935.6µg/kg body weight) in 240 minutes. […]\nEnzyme assay mixtures were prepared by adding 80µl of SUBSTRATE mixture (322.8µl H2O, 120µl 0.5M NaBorate, 60µl 0.01M EDTA, 60µl 0.1M CaCl2, 6µl 1M DTT, 240µl dimethyl casein, 30µl Triton X-100, 1.2µl [^3H]-Putrescine, 120µl Putrescine) to 20µl sample, 20µl scraping buffer for blank control , 20 µl (18µl scraping buffer + 2µl TGase II) for positive control. Samples were mixed in 15ml tubes, the tubes were shaken before putting them into a 28°C water bath for 30 minutes. Reactions were slowed down in an ice bath. 80µl of the incubation mixture was adsorbed onto paper disks. These were immediately dropped into cold 10% TCA (0.1% Putrescine) and washed with agitation for 7 minutes, followed by 2 additional washes with 5% TCA (0.05% putrescine) for 5~7 minutes, and once more with cold (-20°C) 95% ethanol for 5 minutes. Paper disks were dried and placed into 5ml Aquasol, and counted in a Liquid Scintillation Counter. Protein concentration determination was conducted by the Bradford method."}, "RARs": {"tested_on": "RARs", "test": "RAR induction in lung of A/J mice exposed to isotretinoin aerosols, all three RARs", "format": "in vivo", "conditions": "lungs exposed to mid levels of isotretinoin, urethane-treated mice", "protocol": "Antibodies: Polyclonal antibodies to RARα, β and γ (Santa Cruz Biotechnology Inc., San Francisco, CA) were used with a BM Chemiluminescence Western Blotting Kit (Mouse/Rabbit) (Boehringer Mannheim Corporation, Indianapolis).\nExperimental Design: Five lungs each from the urethane-treated vehicle, low dose, and mid dose animals were snap frozen in liquid nitrogen and stored at -70°C for determination of RARs α, β and γ by Western Blot Analysis. In addition, five lungs each from urethane-injected unexposed mice, and untreated control mice were designated for Westerns. The lungs were homogenized and the RARs were determined by standard Western Blotting (21, 22). Due to deaths early in the high dose experiment, no lungs were available for Western Blot Analysis for the high dose exposures, i.e. all tissue was used for lesion quantitation purposes.\nSamples: Lung tissue was collected, frozen on dry ice and kept at -70°C until used. A 500 mg portion was diced in small pieces and homogenized in 300 µl of cold PBS using a hand held homogenizer for 2-3 min. Samples were centrifuged at 500 rpm for 5 min or until the supernatant was clear. The pellet was suspended in 400 µl of cold Buffer A [2 µl 0.5 M EDTA, 10 µl 1 mM EGTA, 50 µl 100 mM PMSF, 10 µl 1M DTT, 10 ml (10 mM HEPES pH 7.9 + 10 mM KCl)], and left at ice temperature for 15 min. […]"}, "[1]": {"conditions": "High: 240 minutes daily 14 Days, 1872µg/kg total deposited dose"}, "[2]": {"conditions": "Low-Middle: 15 minutes daily 14 Days, 117µg/kg total deposited dose"}, "[3]": {"conditions": "Middle-High: 120 minutes daily 14 Days, 936µg/kg total deposited dose"}, "[4]": {"conditions": "Middle: 45 minutes daily 14 Days, 351µg/kg total deposited dose"}}, "note": "Values joined by “and” are separate entries in the source; they are usually repeats but may differ in a detail not shown here. Equal values may be shown once."}
{"smiles": "CC1=C(/C=C/C(C)=C/C=C/C(C)=C\\C(=O)O)C(C)(C)CCC1", "note": "[13-cis RA, 13-cis-Retinoic Acid]", "values": [{"measurement": "stimulation of lung TGase II activity", "setting": "TGase II; maximum, inhaled dose of 1012.3µg/kg, 45 minutes of inhalation, 14 days", "value": 2.9, "unit": "Fold"}, {"measurement": "TGase II assay", "setting": "TGase II; [1]", "value": "0.1025 +/- 0.004 picomoles/µg protein/30 min and 0.1025 ± 0.004 picomoles/µg protein/30 min"}, {"measurement": "TGase II assay DPM/µg protein", "setting": "TGase II; [1]", "value": 8053, "unit": "DPM/µg protein"}, {"measurement": "TGase II assay", "setting": "TGase II; [2]", "value": "0.1150 +/- 0.006 picomoles/µg protein/30 min and 0.1150 ± 0.006 picomoles/µg protein/30 min"}, {"measurement": "TGase II assay DPM/µg protein", "setting": "TGase II; [2]", "value": 9035, "unit": "DPM/µg protein"}, {"measurement": "TGase II assay DPM/µg protein", "setting": "TGase II; Low: 5 minutes daily 14 Days, 39µg/kg total deposited dose", "value": 7503, "unit": "DPM/µg protein"}, {"measurement": "TGase II assay", "setting": "TGase II; Low: 5 minutes daily 14 Days, 39µg/kg total deposited dose, vehicle 0.0450", "value": "0.0955 +/- 0.004 picomoles/µg protein/30 min and 0.0955 ± 0.004 picomoles/µg protein/30 min"}, {"measurement": "TGase II assay", "setting": "TGase II; [3]", "value": "0.1020 +/- 0.005 picomoles/µg protein/30 min and 0.1020 ± 0.005 picomoles/µg protein/30 min"}, {"measurement": "TGase II assay DPM/µg protein", "setting": "TGase II; [3]", "value": 8014, "unit": "DPM/µg protein"}, {"measurement": "TGase II assay", "setting": "TGase II; [4]", "value": "0.1330 +/- 0.009 picomoles/µg protein/30 min"}, {"measurement": "TGase II assay DPM/µg protein", "setting": "TGase II; [4]", "value": 10449, "unit": "DPM/µg protein"}, {"measurement": "stimulation of lung TGase II activity", "setting": "TGase II; with larger amounts of inhaled retinoid", "value": 1.2, "unit": "fold"}, {"measurement": "induction of all three RARs", "setting": "RARs", "value": "at least three fold"}]}
